The record followed here is patent US10472352B2, “Rac inhibitors” (Geneyus LLC, priority 2017, dated 2019).

The subject of data set [1] is MCF-7 human breast cancer cell line. As to the kind of experiment: Cell Viability Assay (MCF7), PrestoBlue. The format is cell-based. To be noted: MCF7, 72 h, MCF-7 cells, three days after drug treatment. Here is the method:
In order to determine a compound's effect on cell viability, PrestoBlue assays were performed as previously described by Kuhn et al. (2013) with modifications. MCF-7 human breast cancer and IGR-1 human melanoma cell lines were seeded into 96-well plates 24 hours prior to addition of drug. Cells were treated with 0 to 200 μM (11 concentrations) of compound solubilized in DMSO, adjusting the final concentration of DMSO to 1% in the well. Three days after drug treatment, cell viability was measured by adding PrestoBlue (Life Technologies Ltd.; cat. No. A13262) reagent directly to wells containing media/drug to reach a final concentration of 10%. PrestoBlue is a modified molecule of the common Alamar Blue probe used to determine viability based on the ability of a cell to metabolize a nonfluorescent compound (resazurin) to a florescent molecule (resorufin). Following a 1 hour incubation period, total well fluorescence was measured using the microplate reader M1000 pro (Tecan) with excitation 560-5 nm and emission 590-5 nm. […] The percentage of living cells was then computed by comparison with control wells. Kuhn, Jonas et al., Assay and Drug Development Technologies, March 2013, Label-Free Cytotoxicity Screening Assay by Digital Holographic Microscopy.

For another data set, the target named is T1, Rac1 protein (Homo sapiens, UniProt P63000).
T1 construct: purchased Cytoskeleton Inc. RC01
As to the kind of experiment: Fluorescence Polarization Assay (Rac1 FP). The format is binding. To be noted: 125 nM his-tagged Rac1, 12.5 nM Bodipy-TR GTPγS, 30 minutes at 37° C. How it is done: Direct binding of Rac1 compound inhibitors to Rac1 protein was performed using fluorescence polarization (FP). Briefly, Rac1 inhibitors were initially dissolved in DMSO and then serial drug dilutions in exchange buffer (20 mM Tris pH 7.5, 50 mM NaCl, 1 mM MgCl, 1 mM EDTA) were prepared in a flat black 96-well half-area plate (Greiner). Recombinant his-tagged Rac1 protein (Cytoskeleton Inc. Cat. # RC01) was added to the inhibitors at a final concentration of 125 nM along with 12.5 nM Bodipy-TR GTPγS (Life Technologies Inc. Cat. # G35780) in exchange buffer and incubated for 30 minutes at 37° C. in exchange buffer. After 30 minutes of incubation. FP was measured on the M1000 Pro (Tecan) fluorescent plate reader with 590 nm±5 nm excitation and 625 nm±5 nm emission spectra settings.

Data set [2] concerns the target His-Rac1 / GST-PBD (PAK Binding Domain) (Homo sapiens, UniProt P63000). In words: Rac Activation AlphaScreen Assay (Rac1 AS). The format is biochemical. To be noted: 500 nM GTPγS, 37° C., 1 hour; 'positive' = signal generated was higher than the positive control. Here is the method: AlphaScreen® assays were performed in 96-well microplates in a final reaction volume of 60 μl. Recombinant His-Rac1, recombinant GST-PBD (PAK Binding Domain), donor and acceptor beads (PerkinElmer), and inhibitors were incubated in exchange buffer (20 mM Tris pH 7.5, 50 mM NaCl, 1 mM MgCl2, 1 mM EDTA, 500 nM GTPγS (guanosine 5′-[γ-thio]triphosphate)) at 37° C. Readings were performed on a Tecan M1000 pro microplate reader after 1 hour.

Data set [3] concerns BT474 breast cancer cells. As to the kind of experiment: BT474 Four (4) Day Cell Viability Assay. The format is cell-based. The following applies: BT474, 4 days, 32661 0 μM, fulvestrant 0.0 nM. How it is done: BT474 breast cancer cells that are Estrogen Receptor Positive and HER2+ were grown in 5% cFBS. 5,000 cells were seeded into each well of a 96-well plate and treated with escalating doses of lapatinib, fulvestrant, and 32661.

pIC50: −log10 of the molar value.

In the case of `FC(F)(F)c1ccc2c(SCCCCCOc3ccc(CN4CCOCC4)nc3)ccnc2c1` [Compound 0031778, 4-[(5-{[6-(morpholin-4-ylmethyl)pyridin-3-yl]oxy}pentyl)sulfanyl]-7-(trifluoromethyl)quinoline], the pIC50 in data set [1] is 5.31; against Rac1 protein, 5.91. Further, the “Rac1 AS IC50(uM)” value in data set [2] is “positive”.
Regarding `FC(F)(F)c1ccc2c(SCCCCCCCn3cc(CN4CCOCC4)nn3)ccnc2c1` [Compound 0032371, 4-({7-[4-(morpholin-4-ylmethyl)-1H-1,2,3-triazol-1-yl]heptyl}sulfanyl)-7-(trifluoromethyl) quinoline], the pIC50 in data set [1] was 4.95; at Rac1 protein it was 5.43; in data set [2], 4.21.
Take `COCCN(Cc1cn(CCCCCCSc2ccnc3cc(C(F)(F)F)ccc23)nn1)C(=O)OC(C)(C)C` [Compound 0032621, tert-butyl N-(2-methoxyethyl)-N-{[1-(6-{[7-(trifluoromethyl)quinolin-4-yl]sulfanyl}hexyl)-1H-1,2,3-triazol-4-yl]methyl}carbamate]: the pIC50 in data set [1] was 5.03; at Rac1 protein it was 5.83. In addition, the “Rac1 AS IC50(uM)” value in data set [2] is recorded as “positive”.
As for `FC(F)(F)c1ccc2c(SCCCCCCn3cncc3CN3CCOCC3)ccnc2c1` [Compound 0032662, 4-({6-[5-(morpholin-4-ylmethyl)-1H-imidazol-1-yl]hexyl}sulfanyl)-7-(trifluoromethyl) quinoline], the pIC50 in data set [1] was 4.72; on Rac1 protein it was 5.63; in data set [2], 4.78.
The corresponding values for `FC(F)(F)c1ccc2c(SCc3cccc(Cn4cc(CN5CCOCC5)nn4)c3)ccnc2c1` [Compound 0032731, 4-[{(3-{[4-(morpholin-4-ylmethyl)-1H-1,2,3-triazol-1-yl]methyl}phenyl)methyl]sulfanyl)-7-(trifluoromethyl) quinoline] are 5.04, 5.29 and 4.62.
`Fc1ccc2c(SCCCCCCn3cc(CN4CCOCC4)nn3)ccnc2c1` [Compound 0032833, 7-fluoro-4-{(6-[4-(morpholin-4-ylmethyl)-1H-1,2,3-triazol-1-yl]hexyl}sulfanyl) quinoline]: the pIC50 in data set [1] was 5.11; against Rac1 protein, 5.36. Further, the “Rac1 AS IC50(uM)” value in data set [2] is recorded as “positive”.
Take `Cc1ccc(NCc2cn(CCCCCCSc3ccnc4cc(C(F)(F)F)ccc34)cn2)cc1` [Compound 0032880, 4-methyl-N-{[1-(6-{[7-(trifluoromethyl)quinolin-4-yl]sulfanyl)hexyl}-1H-imidazol-4-yl]methyl)aniline]: the pIC50 in data set [1] is 5.20; on Rac1 protein it was 6.00; in data set [2], 5.49.
In the case of `COc1ccc(NCc2cn(CCCCCCSc3ccnc4cc(C(F)(F)F)ccc34)cn2)cc1` [Compound 0032881, 4-methoxy-N-{[1-(6-{[7-(trifluoromethyl)quinolin-4-yl]sulfanyl}hexyl)-1H-imidazol-4-yl]methyl}aniline], the pIC50 was 5.17 in data set [1], 6.60 against Rac1 protein and 5.22 in data set [2].
As for `FC(F)(F)c1ccc2c(SCCCCCCn3cnc(CNc4ccccc4)c3)ccnc2c1` [Compound 0032886, N-{[1-(6-{[7-(trifluoromethyl)quinolin-4-yl]sulfanyl)hexyl}-1H-imidazol-4-yl]methyl} aniline], the pIC50 was 5.11 in data set [1], 5.69 against Rac1 protein and 5.36 in data set [2].
The corresponding values for `CN(Cc1cn(CCCCCCSc2ccnc3cc(C(F)(F)F)ccc23)cn1)c1ccccc1` [Compound 0032887, N-methyl-N-{[1-(6-{[7-(trifluoromethyl)quinolin-4-yl]sulfanyl)hexyl}-1H-imidazol-4-yl]methyl}aniline] are 4.93, 5.93 and 5.33.
`O=C(NCc1cn(CCCCCCSc2ccnc3cc(C(F)(F)F)ccc23)nn1)C1CCCCC1` [Compound 0032896, N-{[1-(6-{[7-(trifluoromethyl)quinolin-4-yl]sulfanyl}hexyl)-1H-1,2,3-triazol-4-yl]methyl} cyclohexane-carboxamide]: the pIC50 in data set [1] is 4.86; against Rac1 protein, 5.32. In addition, in data set [2], the “Rac1 AS IC50(uM)” value was “positive”.
Turning to `FC(F)(F)c1ccc2c(SCCCCCCn3ccc(CN4CCOCC4)n3)ccnc2c1` [Compound 0032897, 4-({6-[3-(morpholin-4-ylmethyl)-1H-pyrazol-1-yl]hexyl}sulfanyl)-7-(trifluoromethyl) quinoline], the results for the negative-log IC50 (pIC50) (in data set [1]; against Rac1 protein; in data set [2]) were 4.94, 5.55 and 4.46, respectively.
With `COc1ccc(N2CCN(Cc3cn(CCCCCCSc4ccnc5cc(C(F)(F)F)ccc45)nn3)CC2)cc1` [Compound 0032956, 4-{[6-(4-{[4-(4-methoxyphenyl)piperazin-1-yl]methyl}-1H-1,2,3-triazol-1-yl)hexyl]sulfanyl}-7-(trifluoromethyl) quinoline], the pIC50 was 4.97 in data set [1], 5.85 at Rac1 protein and 5.09 in data set [2].
The corresponding values for `Fc1ccc2c(SCCCCCCn3cnc(CNc4ccccc4)c3)ccnc2c1` [Compound 0033042, N-{(1-(6-[(7-fluoroquinolin-4-yl)sulfanyl]hexyl}-1H-imidazol-4-yl}methyl] aniline] are 5.05, 5.63 and 5.14.
Take `OC(c1ccccc1)c1cn(CCCCCCSc2ccnc3cc(C(F)(F)F)ccc23)cn1` (stereo not shown) [Compound 0033043, phenyl[1-(6-{[7-(trifluoromethyl)quinolin-4-yl]sulfanyl}hexyl)-1H-imidazol-4-yl]methanol]: the pIC50 in data set [1] is 5.11; on Rac1 protein, 4.00; in data set [2] it was 5.02.
The corresponding values for `FC(F)(F)c1ccc2c(SCCCCCCNc3ccc(N4CCNCC4)cc3)ccnc2c1` [Compound 0033102, 4-(piperazin-1-yl)-N-(6-{[7-(trifluoromethyl)quinolin-4-yl]sulfanyl}hexyl)aniline] are 5.42, 5.02 and 6.42.
The corresponding values for `FC(F)(F)c1ccc2c(SCCCCCCNc3ccc(N4CCOCC4)cc3)ccnc2c1` [Compound 0033200, 4-(morpholin-4-yl)-N-(6-{[7-(trifluoromethyl)quinolin-4-yl]sulfanyl}hexyl)aniline] are 4.97, 6.15 and 5.64.
In the case of `FC(F)(F)c1ccc2c(SCCCCCCNc3cccc(N4CCNCC4)c3)ccnc2c1` [Compound 0033235, 3-piperazin-1-yl-N-[6-[[7-(trifluoromethyl)-4-quinolyl]sulfanyl]hexyl]aniline], the pIC50 in data set [1] is 5.44; at Rac1 protein it was 5.32; in data set [2], 5.96.
With `CS(=O)(=O)CCNCc1ccc(-c2ccc3ncnc(Nc4ccc(OCc5cccc(F)c5)c(Cl)c4)c3c2)o1` [Lapatinib, lapatinib, reference compound], the cellular viability in data set [3] (lapatinib 6.9 nM) turned out to be 99%; in data set [3] (lapatinib 20.6 nM) it was 96%; in data set [3] (lapatinib 61.7 nM) it was 80%; in data set [3] (lapatinib 185.2 nM), 75%; in data set [3] (lapatinib 555.6 nM), 77%; in data set [3] (lapatinib 1666.7 nM), 68%. In addition, the cellular viability in data set [3] (lapatinib 3333.0 nM) amounted to 60%.
